The source made the active and inactive calls. The rule behind the calls is not given here.
Tests used:
[1] = target: T1, Nuclear factor erythroid 2-related factor 2 (Homo sapiens) (UniProt Q16236); assay: Induction of NRF2-mediated ARE enhancer activity in hormone-sensitive human LNCaP cells transfected with pGL3-ARE-TK-luc at 5 uM after 24 hrs by luciferase assay relative to control; assay type: functional, cell-based
T1 sequence (whole entry): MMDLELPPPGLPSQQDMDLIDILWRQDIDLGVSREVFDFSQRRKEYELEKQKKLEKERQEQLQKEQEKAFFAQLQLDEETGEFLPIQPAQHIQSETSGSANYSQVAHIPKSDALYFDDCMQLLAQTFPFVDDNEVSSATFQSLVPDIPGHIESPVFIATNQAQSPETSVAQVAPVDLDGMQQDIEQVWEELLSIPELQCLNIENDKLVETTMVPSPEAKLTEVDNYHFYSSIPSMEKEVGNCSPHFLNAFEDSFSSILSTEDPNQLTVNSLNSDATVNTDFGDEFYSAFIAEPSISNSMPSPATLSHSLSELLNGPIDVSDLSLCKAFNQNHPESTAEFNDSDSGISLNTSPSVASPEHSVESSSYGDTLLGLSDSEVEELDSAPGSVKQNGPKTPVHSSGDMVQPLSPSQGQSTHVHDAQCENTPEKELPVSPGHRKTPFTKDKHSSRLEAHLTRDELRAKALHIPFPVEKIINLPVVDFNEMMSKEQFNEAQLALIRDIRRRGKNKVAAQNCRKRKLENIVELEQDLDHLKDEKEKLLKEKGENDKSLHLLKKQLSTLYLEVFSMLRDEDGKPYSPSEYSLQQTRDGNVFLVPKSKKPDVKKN

[2] = target: T1, Nuclear factor erythroid 2-related factor 2 (Homo sapiens); assay: Induction of NRF2-mediated ARE enhancer activity in hormone-refractory human PC3 cells transfected with pGL3-ARE-TK-luc at 5 uM after 24 hrs by luciferase assay relative to control; assay type: functional, cell-based; settings: PC-3
[3] = target: T1, Nuclear factor erythroid 2-related factor 2 (Homo sapiens); assay: Induction of NRF2-mediated ARE enhancer activity in hormone-refractory human DU145 cells transfected with pGL3-ARE-TK-luc at 5 uM after 24 hrs by luciferase assay relative to control; assay type: functional, cell-based; settings: DU-145
[4] = target: T1, Nuclear factor erythroid 2-related factor 2 (Homo sapiens); assay: Increase of NRF2-mediated HO-1 expression in human LNCaP cells at 5 uM after 24 hrs by Western blotting; assay type: functional, cell-based
[5] = target: T1, Nuclear factor erythroid 2-related factor 2 (Homo sapiens); assay: Increase of NRF2-mediated HO-1 expression in hormone-refractory human PC3 cells at 5 uM after 24 hrs by Western blotting; assay type: functional, cell-based; settings: PC-3
[6] = target: T1, Nuclear factor erythroid 2-related factor 2 (Homo sapiens); assay: Increase of NRF2-mediated HO-1 expression in hormone-refractory human DU145 cells at 5 uM after 24 hrs by Western blotting; assay type: functional, cell-based; settings: DU-145
[7] = target: T1, Nuclear factor erythroid 2-related factor 2 (Homo sapiens); assay: Increase of NRF2-mediated HO-1 expression in human LNCaP cells after 24 hrs by Western blotting; assay type: functional, cell-based
[8] = target: T1, Nuclear factor erythroid 2-related factor 2 (Homo sapiens); assay: Increase of NRF2-mediated HO-1 expression in human LNCaP cells at 5 uM by Western blotting; assay type: functional, cell-based; settings: TDE = time-dependent effect
[9] = target: T1, Nuclear factor erythroid 2-related factor 2 (Homo sapiens); assay: Induction of nuclear translocation of NRF2 in human LNCaP cells at 5 uM after 0.5 hrs by Western blotting; assay type: functional, cell-based
[10] = target: T1, Nuclear factor erythroid 2-related factor 2 (Homo sapiens); assay: Induction of nuclear translocation of NRF2 in human LNCaP cells at 5 uM after 6 hrs by Western blotting; assay type: functional, cell-based
[11] = tested on: LNCaP; assay: Induction of NRF2 dominant-negative mutant-mediated ARE enhancer activity in human LNCaP cells transfected with pGL3-ARE-TK-luc at 5 uM after 24 hrs by luciferase assay relative to control; assay type: cell-based
[12] = tested on: LNCaP; assay: Antioxidant activity in human LNCAP cells assessed as decrease in intracellular ROS level at 5 uM after 5 mins by fluorescence microplate reader assay; assay type: functional, cell-based
[13] = tested on: LNCaP; assay: Antioxidant activity in human LNCAP cells assessed as decrease in intracellular ROS level at 5 uM after 1 hr by fluorescence microplate reader assay; assay type: functional, cell-based
[14] = tested on: LNCaP; assay: Antioxidant activity in human LNCAP cells assessed as decrease in intracellular ROS level at 5 uM after 12 hrs by fluorescence microplate reader assay; assay type: functional, cell-based
[15] = tested on: LNCaP; assay: Induction of morphological changes in human LNCAP cells assessed as appearance of flattened and enlarged cells at 5 uM after 24 to 48 hrs; assay type: functional, cell-based
[16] = tested on: LNCaP; assay: Cytotoxicity against human LNCAP cells assessed as reduction of cells count at 5 uM after 24 to 48 hrs by trypan blue dye exclusion assay; assay type: functional, cell-based
[17] = tested on: LNCaP; assay: Induction of apoptosis in human LNCAP cells at 5 uM by Hoechst 33342 staining; assay type: functional, cell-based
[18] = tested on: LNCaP; assay: Decrease in cyclin B1 expression in human LNCAP cells at 5 uM after 48 hrs by Western blotting; assay type: functional, cell-based
[19] = tested on: LNCaP; assay: Decrease in cyclin D1 expression in human LNCAP cells at 5 uM after 48 hrs by Western blotting; assay type: functional, cell-based
[20] = tested on: LNCaP; assay: Effect on p21 expression in human LNCAP cells at 5 uM after 48 hrs by Western blotting; assay type: functional, cell-based
[21] = tested on: LNCaP; assay: Growth inhibition of human LNCAP cells at 5 uM after 48 hrs by trypan blue dye exclusion assay in presence of 5 uM HO-1 inhibitor Zn-protoporphyrin; assay type: functional, cell-based
[22] = tested on: LNCaP; assay: Growth inhibition of human LNCAP cells transfected with HO-1 siRNA at 5 uM after 72 hrs by trypan blue dye exclusion assay; assay type: functional, cell-based
[23] = target: T1, Nuclear factor erythroid 2-related factor 2 (Homo sapiens); assay: Increase of NRF2-mediated HO-1 expression in hormone-refractory human MCF7 cells after 24 hrs by Western blotting; assay type: functional, cell-based
[24] = target: T1, Nuclear factor erythroid 2-related factor 2 (Homo sapiens); assay: Increase of NRF2-mediated HO-1 expression in hormone-refractory human MDA-MB-231 cells after 24 hrs by Western blotting; assay type: functional, cell-based
[25] = target: T1, Nuclear factor erythroid 2-related factor 2 (Homo sapiens); assay: Increase of NRF2-mediated NQO-1 expression in human LNCaP cells at 5 uM after 24 hrs by Western blotting; assay type: functional, cell-based
[26] = target: T1, Nuclear factor erythroid 2-related factor 2 (Homo sapiens); assay: Increase of NRF2-mediated NQO-1 expression in hormone-refractory human PC3 cells at 5 uM after 24 hrs by Western blotting; assay type: functional, cell-based; settings: PC-3
[27] = target: T1, Nuclear factor erythroid 2-related factor 2 (Homo sapiens); assay: Increase of NRF2-mediated NQO-1 expression in hormone-refractory human DU145 cells at 5 uM after 24 hrs by Western blotting; assay type: functional, cell-based; settings: DU-145
[28] = target: RAC-alpha serine/threonine-protein kinase (Homo sapiens) (UniProt P31749); assay: Effect on c-Akt phosphorylation in human LNCAP cells; assay type: cell-based
[29] = tested on: LNCaP; assay: Effect on ERK phosphorylation in human LNCAP cells; assay type: cell-based
[30] = target: c-Jun N-terminal kinase, JNK (Homo sapiens) (UniProt P45983+P53779+P45984); assay: Effect on JNK phosphorylation in human LNCAP cells; assay type: cell-based
[31] = target: MAP kinase p38 (Homo sapiens) (UniProt O15264+Q15759+Q16539+P53778); assay: Effect on p38 phosphorylation in human LNCAP cells; assay type: cell-based
[32] = target: T1, Nuclear factor erythroid 2-related factor 2 (Homo sapiens); assay: Induction of nuclear translocation of NRF2 in human LNCaP cells at 5 uM after 1 hr by Western blotting; assay type: functional, cell-based

Sequence of RAC-alpha serine/threonine-protein kinase (Homo sapiens) (P31749 whole entry): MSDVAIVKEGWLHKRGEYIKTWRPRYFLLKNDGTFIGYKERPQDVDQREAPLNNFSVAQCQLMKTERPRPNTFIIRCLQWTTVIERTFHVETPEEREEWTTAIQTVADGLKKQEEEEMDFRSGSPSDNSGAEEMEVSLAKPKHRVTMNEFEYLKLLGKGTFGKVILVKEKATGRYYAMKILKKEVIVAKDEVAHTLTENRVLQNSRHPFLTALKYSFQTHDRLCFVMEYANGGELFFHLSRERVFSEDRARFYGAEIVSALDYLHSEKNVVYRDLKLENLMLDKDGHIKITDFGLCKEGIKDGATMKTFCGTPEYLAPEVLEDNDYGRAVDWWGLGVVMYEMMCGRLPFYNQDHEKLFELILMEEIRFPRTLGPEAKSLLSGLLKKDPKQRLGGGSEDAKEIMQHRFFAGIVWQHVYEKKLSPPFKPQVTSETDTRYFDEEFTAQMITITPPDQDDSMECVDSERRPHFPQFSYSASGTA

| SMILES | Activity [1] | fold change (FC) [1] | fold change (FC) [2] | fold change (FC) [3] | Activity [4] | Activity [5] | Activity [6] | Activity [7] | Activity [8] | Activity [10] | Activity [11] | inhibition [12] | inhibition [13] | inhibition [14] | Activity [15] | Activity [16] | Activity [17] | inhibition [18] | inhibition [19] | Activity [20] | also measured |
| --- | --- | --- | --- | --- | --- | --- | --- | --- | --- | --- | --- | --- | --- | --- | --- | --- | --- | --- | --- | --- | --- |
| C[C@@H](O[Si](C)(C)C(C)(C)C)[C@H]1C(=O)N2/C(=N/c3ccccc3)[Se]/C(=C/I)C[C@H]12 | Active | – | – | – | – | – | – | – | – | – | – | – | – | – | – | – | – | – | – | – | – |
| C[C@@H](O[Si](C)(C)C(C)(C)C)[C@H]1C(=O)N2/C(=N/Cc3ccccc3)[Se]/C(=C/I)C[C@H]12 | – | 6 | < 2 | < 2 | Active | Active | Active | Dose-dependent effect | tde | Active | inactive | Active | Active | Active | Active | Active | inactive | Active | Active | inactive | Activity [9]: Active; growth inhibition (GI) [21]: Active; growth inhibition (GI) [22]: Active; Activity [23]: Active; Activity [24]: Active; Activity [25]: Active; Activity [26]: Active; Activity [27]: Active; Activity [28]: inactive; Activity [29]: inactive; Activity [30]: inactive; Activity [31]: inactive |
| C[C@@H](O[Si](C)(C)C(C)(C)C)[C@H]1C(=O)N2/C(=N/c3ccc4ccccc4c3)[Se]/C(=C/I)C[C@H]12 | Active | – | – | – | – | – | – | – | – | – | – | – | – | – | – | – | – | – | – | – | – |
| C[C@@H](O[Si](C)(C)C(C)(C)C)[C@H]1C(=O)N2/C(=N/C3CCCCC3)[Se]/C(=C/I)C[C@H]12 | – | 6 | < 2 | < 2 | Active | Active | Active | Dose-dependent effect | tde | Active | inactive | Active | Active | Active | Active | Active | inactive | Active | Active | inactive | Activity [32]: Active; growth inhibition (GI) [21]: Active; growth inhibition (GI) [22]: Active; Activity [23]: Active; Activity [24]: Active; Activity [25]: Active; Activity [26]: Active; Activity [27]: Active; Activity [28]: inactive; Activity [29]: inactive; Activity [30]: inactive; Activity [31]: inactive |

— ChEMBL document CHEMBL1250530, “Identification of organoselenium compounds that possess chemopreventive properties in human prostate cancer LNCaP cells” (Bioorg Med Chem, 2010)
